Data taken from patent publication EP2170885B1, “BETA-CARBOLINE ARYLSULFONAMIDES, METHOD FOR PREPARING THEM AND COMPOSITION COMPRISING THEM” (C4T S.C. a.r.l., priority 2007, dated 2008).

How the values were obtained:
Assay type in all cases: biochemical
MMP14 = biological target: T1, MMP14 (Homo sapiens, UniProt P50281); assay: Fluorimetric enzymatic test, MMP14; details: for IC50: catalytic domain, fluorimetric test
T1 construct: in the form of the catalytic domains alone for the other MMPs
Procedure: (§1) Determination of the modulatory activity on the proteolytic action of the various MMPs tested (MMP1, 2, 3, 8, 9, 12, 13 and 14) using the compounds of formula (I) according to the present invention was performed via fluorometry on a 96-well plate.
(§2) The test compounds were dissolved in DMSO to a concentration of 5 mM or 50 mM. 5-fold or 10-fold (D5 or D10) serial dilutions of each compound were prepared so as to reach the nominal range of 5 assays on which the test was performed. Each of the dilutions was added to a well containing 150 µl of activated buffer (50 mM Tris/HCl; 0.1 M NaCl; 10 mM CaCl2; 0.05% Brij 35) together with the enzyme on which the test was performed.
(§3) The concentration of the enzyme [in full-length form in the case of MMP2; in the form of the catalytic domains alone for the other MMPs] ranged between 0.5 nM and 3 nM based on the activity of the enzyme on the fluorogenic substrate used (7-methoxycoumarin-4-yl)-Pro-Leu-Gly-Leu-DPA-Ala-Arg-NH2 (MCA-1) for MMP 1, 2, 3, 8, 9, 12 and 14) and MCA-Pro-(L-cyclohexylalanine)-Gly-(L-norvaline)-His-Ala-3-(2,4-dinitrophenyl)-L-2,3-diaminopropionyl)-NH2 for MMP13) (Knight et al. 1992. FEBS Lett. 296, 263; Knauper et al. 1996, J. Biol. Chem. 271, 1544).
(§4) After incubation for one hour at 37°C of the compound with the enzyme, 50 µl of a solution of fluorogenic substrate were added to a final concentration of between 2 and 7 µM.
(§5) The fluorometric readings were then taken using a Varian Cary Eclipse spectrofluorometer regulated on the specific wavelength for the substrate used, at time T0 and after 3 hours of incubation at 37° (T3h).

MMP2 = biological target: T2, MMP2 (Homo sapiens, UniProt P08253); assay: Fluorimetric enzymatic test, MMP2; details: full enzyme, read-out: IC50MMP2 (full enzyme)
T2 construct: in full-length form in the case of MMP2
T2 sequence (P08253 110-660): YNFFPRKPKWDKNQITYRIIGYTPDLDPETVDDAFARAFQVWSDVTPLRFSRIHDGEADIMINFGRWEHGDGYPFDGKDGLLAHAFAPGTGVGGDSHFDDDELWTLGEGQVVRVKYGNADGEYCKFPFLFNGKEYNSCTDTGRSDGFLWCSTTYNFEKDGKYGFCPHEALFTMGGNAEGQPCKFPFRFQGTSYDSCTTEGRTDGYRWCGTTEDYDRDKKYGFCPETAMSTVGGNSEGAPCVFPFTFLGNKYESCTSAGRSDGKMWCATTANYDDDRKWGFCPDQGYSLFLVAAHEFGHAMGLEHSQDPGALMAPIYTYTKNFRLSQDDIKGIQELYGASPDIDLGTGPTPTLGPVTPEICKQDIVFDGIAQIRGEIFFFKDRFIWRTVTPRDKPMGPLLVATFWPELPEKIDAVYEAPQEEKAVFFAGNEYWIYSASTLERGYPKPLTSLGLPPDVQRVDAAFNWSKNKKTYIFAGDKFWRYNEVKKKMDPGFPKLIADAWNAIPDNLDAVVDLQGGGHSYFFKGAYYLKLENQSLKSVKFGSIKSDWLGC
Procedure: as §1, §2, §4, §5

MMP9 = biological target: T3, MMP9 (Homo sapiens, UniProt P14780); assay: Fluorimetric enzymatic test, MMP9; details: catalytic domain
T3 construct: in the form of the catalytic domains alone for the other MMPs
Procedure: as §1, §2, §3, §4, §5

MMP3 = biological target: T4, MMP3 (Homo sapiens, UniProt P08254); assay: Fluorimetric enzymatic test, MMP3; details: for IC50: catalytic domain, fluorimetric test
T4 construct: in the form of the catalytic domains alone for the other MMPs
Procedure: as §1, §2, §4, §5

MMP8 = biological target: T5, MMP8 (Homo sapiens, UniProt P22894); assay: Fluorimetric enzymatic test, MMP8; details: catalytic domain
T5 construct: in the form of the catalytic domains alone for the other MMPs
Procedure: as §1, §2, §3, §4, §5

MMP13 = biological target: T6, MMP13 (Homo sapiens, UniProt P45452); assay: Fluorimetric enzymatic test, MMP13; details: catalytic domain
T6 construct: in the form of the catalytic domains alone for the other MMPs
Procedure: as §1, §2, §4, §5

MMP1 = biological target: T7, MMP1 (Homo sapiens, UniProt P03956); assay: Fluorimetric enzymatic test, MMP1; details: for IC50: catalytic domain, fluorimetric test
T7 construct: in the form of the catalytic domains alone for the other MMPs
T7 sequence (P03956 98-276 limits assumed): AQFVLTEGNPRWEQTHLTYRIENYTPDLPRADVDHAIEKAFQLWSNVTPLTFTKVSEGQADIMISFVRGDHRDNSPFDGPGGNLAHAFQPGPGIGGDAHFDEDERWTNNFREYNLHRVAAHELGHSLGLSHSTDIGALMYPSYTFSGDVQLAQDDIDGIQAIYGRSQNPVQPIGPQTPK
Procedure: as §1, §2, §4, §5

MMP12 = biological target: T8, MMP12 (Homo sapiens, UniProt P39900); assay: Fluorimetric enzymatic test, MMP12; details: catalytic domain
T8 construct: in the form of the catalytic domains alone for the other MMPs
Procedure: as §1, §2, §3, §4, §5

[1] = relative to the limit value of 0.3 nM for MMP2

T8 sequence (P39900 106-263 limits assumed, species assumed): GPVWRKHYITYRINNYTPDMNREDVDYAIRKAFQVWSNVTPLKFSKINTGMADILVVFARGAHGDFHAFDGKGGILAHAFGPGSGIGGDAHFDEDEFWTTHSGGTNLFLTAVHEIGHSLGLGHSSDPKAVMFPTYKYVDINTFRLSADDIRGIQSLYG
T4 sequence (P08254 100-272 limits assumed, species assumed): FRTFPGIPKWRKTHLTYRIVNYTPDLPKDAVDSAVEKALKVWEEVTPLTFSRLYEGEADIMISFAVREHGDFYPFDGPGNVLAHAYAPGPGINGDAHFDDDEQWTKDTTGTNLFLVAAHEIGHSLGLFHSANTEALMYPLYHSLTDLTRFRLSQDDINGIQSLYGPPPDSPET
T5 sequence (P22894 100-262 limits assumed, species assumed): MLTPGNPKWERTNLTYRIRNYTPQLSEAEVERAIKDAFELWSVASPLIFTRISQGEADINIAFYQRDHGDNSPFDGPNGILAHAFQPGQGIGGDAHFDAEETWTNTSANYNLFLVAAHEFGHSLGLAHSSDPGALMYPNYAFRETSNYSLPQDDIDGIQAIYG
T3 sequence (P14780 107-444 limits assumed, species assumed): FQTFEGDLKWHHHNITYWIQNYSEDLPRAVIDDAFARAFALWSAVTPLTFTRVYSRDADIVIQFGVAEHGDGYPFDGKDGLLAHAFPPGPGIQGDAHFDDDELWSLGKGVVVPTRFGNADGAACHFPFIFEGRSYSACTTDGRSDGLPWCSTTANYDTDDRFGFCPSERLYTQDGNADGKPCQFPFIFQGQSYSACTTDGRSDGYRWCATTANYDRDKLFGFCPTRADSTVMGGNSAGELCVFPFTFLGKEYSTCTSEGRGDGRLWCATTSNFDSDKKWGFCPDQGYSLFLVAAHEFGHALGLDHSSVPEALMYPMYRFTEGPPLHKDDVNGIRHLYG

Row | IC50 (MMP14) [nM] | IC50 (MMP2) [nM] | IC50 (MMP9) [nM] | IC50 (MMP3) [nM] | IC50 (MMP8) [nM] | IC50 (MMP13) [nM] | IC50 (MMP1) [nM] | IC50 (MMP12) [nM] | decrease in inhibitory power with respect to MMP14 (MMP14; [1]) [fold] | decrease in inhibitory power with respect to MMP3 (MMP3; [1]) [fold] | decrease in inhibitory power with respect to MMP1 (MMP1; [1]) | Compound
1 | > 50000 | 10000 ± 2000 | 15000 ± 4000 | > 50000 | 10000 ± 1000 | 800 ± 200 | > 50000 | 2000 ± 200 | – | – | – | O=C(O)C1c2[nH]c3ccccc3c2CCN1S(=O)(=O)c1ccc(Oc2ccc(Cl)cc2)cc1 (racemic) [Compound 8, (1 RS)-2-(4"-chloro-4'-phenoxybenzenesulfonyl)-1,2,3,4-tetrahydronorarmano-1-carboxylic acid]
2 | > 50000 | 28000 ± 1000 | 4000 ± 1000 | > 50000 | 21000 ± 2000 | > 50000 | > 50000 | 2000 ± 300 | – | – | – | O=C(O)C1c2[nH]c3ccccc3c2CCN1S(=O)(=O)c1ccc(Oc2ccc(F)cc2)cc1 (racemic) [Compound 9, (1 RS)-2-(4"-fluoro-4'phenoxybenzenesulfonyl)-1,2,3,4-tetrahydronorarmano-1-carboxylic acid]
3 | 30000 ± 2000 | 600 ± 800 | 7500 ± 5000 | 11000 ± 1000 | 3000 ± 700 | 160 ± 50 | > 50000 | 300 ± 50 | – | – | – | O=C(O)C1c2[nH]c3ccccc3c2CCN1S(=O)(=O)c1ccc(-c2ccccc2)cc1 (racemic) [Compound 3, (1RS)-2-(4'-phenylbenzenesulfonyl)-1,2,3,4-tetrahydro-norarmano-1-carboxylic acid]
4 | 30 | < 0.3 | – | – | – | – | > 50000 | – | ~100 | ~830 | about 16 000 fold | O=C(NO)C1c2[nH]c3ccccc3c2CCN1S(=O)(=O)c1ccc(Oc2ccc(Cl)cc2)cc1 (racemic) [Compound 13, (1 RS)-2-(4"-chloro-4'-phenoxybenzenesulfonyl)-1,2,3,4-tetrahydronorarmano-N-hydroxy-1-carboxamide]
5 | – | 15000 | 141000 | – | – | – | – | – | – | – | – | Cc1ccc(S(=O)(=O)N2CCc3c([nH]c4ccccc34)C2C(=O)O)cc1 (racemic) [Compound 5, (1RS)-2-(4-methylbenzenesulfonyl)-1,2,3,4-tetrahydro-norarmano-1-carboxylic acid]
6 | 3.2 ± 0.1 | < 0.3 | < 0.5 | 600 ± 200 | < 0.5 | < 0.5 | 340 ± 100 | – | – | – | – | O=C(NO)C1c2[nH]c3ccccc3c2CCN1S(=O)(=O)c1ccc(Oc2ccc(F)cc2)cc1 (racemic) [Compound 14, (1RS)-2-(4"-fluoro-4'-phenoxybenzenesulfonyl)-1,2,3,4-tetrahydronorarmano-N-hydroxy-1-carboxamide]
7 | 5 ± 1 | < 0.3 | < 0.5 | 30000 ± 10000 | < 0.5 | < 0.5 | 350 ± 100 | < 0.5 | – | – | – | COc1ccc(Oc2ccc(S(=O)(=O)N3CCc4c([nH]c5ccccc45)C3C(=O)NO)cc2)cc1 (racemic) [Compound 12, (1 RS)-2-(4"-methoxy-4'-phenoxybenzenesulfonyl)-1,2,3,4-tetrahydronorarmano-N-hydroxy-1-carboxamide]
8 | – | 2500 ± 100 | 62000 ± 5000 | – | – | – | – | – | – | – | – | O=C(O)C1c2[nH]c3ccccc3c2CCN1S(=O)(=O)c1ccc2ccccc2c1 (racemic) [Compound 6, (1RS)-2-(2-naphthylsulfonyl)-1,2,3,4-tetrahydro-norarmano-1-carboxylic acid]
9 | – | > 125000 | – | – | – | – | – | – | – | – | – | CC(C)(C)c1ccc(S(=O)(=O)N2CCc3c([nH]c4ccccc34)C2C(=O)O)cc1 (racemic) [Compound 7, (1 RS)-2-(4'-t-butylbenzenesulfonyl)-1,2,3,4-tetrahydro-norarmano-1-carboxylic acid]
10 | – | – | – | – | < 0.5 | – | – | < 0.5 | – | – | – | CC1(C)SCCN(S(=O)(=O)c2ccc(Oc3ccncc3)cc2)[C@H]1C(=O)NO [prinomastat, (3S)-N-hydroxy-4-(4-(pyrid-4-yloxyl)benzenesulfonyl)-2,2-dimethyltetrahydro-2H-1,4-thiazine-3-carboxamide, reference compound]
11 | – | 14 ± 3 | 15 ± 2 | 600 | 4.7 ± 0.5 | 3 | 3000 ± 1000 | 4 ± 1.6 | – | – | – | O=C(NO)C1c2[nH]c3ccccc3c2CCN1S(=O)(=O)c1ccc(-c2ccccc2)cc1 (racemic) [Compound 11, (1R,S)-2-(4'biphenylsulfonyl)-1,2,3,4-tetrahydro-norarmano-N-hydroxy-1-carboxamide]
12 | > 50000 | 600 ± 100 | 2200 ± 800 | > 50000 | 1600 ± 200 | 15000 ± 5000 | > 50000 | 500 ± 100 | – | – | – | COc1ccc(Oc2ccc(S(=O)(=O)N3CCc4c([nH]c5ccccc45)C3C(=O)O)cc2)cc1 (racemic) [Compound 2, (1RS)-2-(4"-methoxy-4'-phenoxybenzenesulfonyl)-1,2,3,4-tetrahydronorarmano-1-carboxylic acid]

Row | Compound | IC50 (MMP14) [nM] | IC50 (MMP2) [nM] | IC50 (MMP9) [nM] | IC50 (MMP3) [nM] | IC50 (MMP8) [nM] | IC50 (MMP13) [nM] | IC50 (MMP1) [nM] | IC50 (MMP12) [nM] | decrease in inhibitory power with respect to MMP14 (MMP14; [1]) [fold] | decrease in inhibitory power with respect to MMP3 (MMP3; [1]) [fold] | decrease in inhibitory power with respect to MMP1 (MMP1; [1])
13 | CCCCOc1ccc(S(=O)(=O)N2CCc3c([nH]c4ccccc34)C2C(=O)O)cc1 (racemic) [Compound 4, (1 RS)-2-(4'-butoxybenzenesulfonyl)-1,2,3,4-tetrahydro-norarmano-1-carboxylic acid] | – | 680 ± 200 | 24000 ± 1000 | – | 30000 | 2000 ± 500 | > 50000 | 4500 ± 1000 | – | – | –
14 | CCCCOc1ccc(S(=O)(=O)N2CCc3c([nH]c4ccccc34)C2C(=O)NO)cc1 (racemic) [Compound 10, (1R,S)-2-(4'-butoxybenzenesulfonyl)-1,2,3,4-tetrahydro-norarmano-N-hydroxy-1-carboxamide] | 50 ± 11 | 7 ± 2.5 | 6 ± 2 | 4000 ± 1500 | < 0.5 | 2000 ± 500 | 20000 ± 2000 | < 0.5 | – | – | –
15 | COc1ccc2[nH]c3c(c2c1)CCNC3C(=O)O (stereo not shown) [6-methoxy-1,2,3,4-tetrahydronorarmano-1-carboxylic acid, reference compound] | – | – | – | – | 200 | – | – | – | – | – | –
